Results on two molecules are retold here after patent US20170190705A1, “Compositions and Methods for Inhibiting BMP” (THE BRIGHAM AND WOMAN'S HOSPITAL, INC., priority 2014, published 2017).

pIC50: −log10 of the molar value. Like-named read-outs stand apart in the source and are kept apart here.

The target of series [1] is RSK4 (Homo sapiens, UniProt Q9UK32). As to the kind of experiment: Kinome profiling RSK4. In kind it is biochemical. As to conditions: read-out: Inhibitory activity RSK4; for inhibition at 0.1 µM: 100 nM. As for the experimental part:
(§1) . The kinome-wide selectivity was determined following the methods previously reported by Mohedas et al., ACS Chem Biol 2013, 8, 1291-1302 and Sanvitale et al., PLoS One 2013, 8, e62721.

The target of series [2] is LTK (Homo sapiens, UniProt P29376). Briefly: Kinome profiling LTK. In kind it is biochemical. The note with it: read-out: Inhibitory activity LTK; for inhibition at 0.1 µM: 100 nM. As for the experimental part:
as §1

For series [3], the target named is MEK1 (Homo sapiens, UniProt Q02750). Briefly: Kinome profiling MEK1. In kind it is biochemical. As to conditions: read-out: Inhibitory activity MEK1; for inhibition at 0.1 µM: 100 nM. As for the experimental part:
as §1

The target of series [4] is T1, caALK3 (Homo sapiens, UniProt P36894, Q233D).
T1 construct: expressed in transfected cells; host or cells: C2C12 BRE-Luc cells infected with adenovirus (MOI 100)
T1 sequence (P36894 24-532 Q233D): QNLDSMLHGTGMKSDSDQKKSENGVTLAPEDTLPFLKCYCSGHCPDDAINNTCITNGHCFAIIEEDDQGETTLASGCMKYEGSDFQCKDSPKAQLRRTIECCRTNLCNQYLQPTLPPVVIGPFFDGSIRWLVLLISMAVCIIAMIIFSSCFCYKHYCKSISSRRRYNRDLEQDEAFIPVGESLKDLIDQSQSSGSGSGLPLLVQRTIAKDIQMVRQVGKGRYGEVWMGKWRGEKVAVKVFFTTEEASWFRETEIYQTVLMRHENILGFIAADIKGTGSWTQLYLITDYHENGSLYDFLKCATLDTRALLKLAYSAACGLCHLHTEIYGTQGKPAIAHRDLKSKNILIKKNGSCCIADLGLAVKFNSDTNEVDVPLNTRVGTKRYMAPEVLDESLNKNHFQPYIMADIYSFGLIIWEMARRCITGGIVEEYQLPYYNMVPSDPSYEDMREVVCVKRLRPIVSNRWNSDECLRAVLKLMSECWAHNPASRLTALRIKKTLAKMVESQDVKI
As to the kind of experiment: Luciferase reporter assay constitutively active ALK3. The note with it: read-out: Cell Based Assay caALK3 IC50. From the text:
C2Cl2 […] cells stably transfected with BMP responsive element from the Id promoter fused to luciferase reporter gene (BRE-Luc) were generously provided by Dr. Peter ten Dijke (Leiden University Medical Center, NL) following the methods described by Zilberberg et al., BMC cell biology 2007, 8, 41-50. Human embryonic kidney 293T cells stably transfected with the TGF-β responsive element from the PAI-1 promoter fused to luciferase reporter gene (CAGA-Luc) were generously provided by Dr. Howard Weiner (Brigham and Women's Hospital, Boston, Mass.) following the methods described by Oida et al., PloS one 2011, 6, e18365. C2Cl2 Bre-Luc and 293T CAGA-Luc cells were seeded in DMEM supplemented with 2% FBS at 20,000 cells per well in tissue culture treated 96-well plates (Costar® 3610; Corning). The cells were incubated for 1 h (37° C. and 10% CO2) and allowed to settle and attach. Compounds of interest or DMSO were diluted in DMEM and added at final compound concentrations of 1 nM to 10 μM. Cells were then incubated for 30 min. Adenovirus expressing constitutively active BMP and TGF-β type I receptors (Ad.caALK1-5), generously provided by Dr. Akiko Hata (University of to California at San Francisco), were added to achieve a multiplicity of infection (MOI) of 100. Plates were incubated overnight at 37° C. Cell viability was assayed with an MIT (3-(4,5-dimethylthiazol-2-yl)-2,5-diphenyl tetrazolium bromide) colorimetric assay (Promega) per the manufacturer's instructions. Media was discarded, and firefly luciferase activity was measured (Promega) according to manufacturer's protocol. Light output was measured using a Spectramax L luminometer (Molecular Devices) with an integration time of one second per well. Data was normalized to 100% of incremental BRE-Luc activity due to adenoviruses specifying caALK1, 2, or 3, or the incremental CAGA-Luc activity due to adenoviruses specifying caALK4 or 5.
For orientation: In a reporter assay the amount or activity of a reporter protein is the signal.

The target of series [5] is T2, MST1 (Homo sapiens, UniProt Q13043).
T2 sequence (Q13043 1-487): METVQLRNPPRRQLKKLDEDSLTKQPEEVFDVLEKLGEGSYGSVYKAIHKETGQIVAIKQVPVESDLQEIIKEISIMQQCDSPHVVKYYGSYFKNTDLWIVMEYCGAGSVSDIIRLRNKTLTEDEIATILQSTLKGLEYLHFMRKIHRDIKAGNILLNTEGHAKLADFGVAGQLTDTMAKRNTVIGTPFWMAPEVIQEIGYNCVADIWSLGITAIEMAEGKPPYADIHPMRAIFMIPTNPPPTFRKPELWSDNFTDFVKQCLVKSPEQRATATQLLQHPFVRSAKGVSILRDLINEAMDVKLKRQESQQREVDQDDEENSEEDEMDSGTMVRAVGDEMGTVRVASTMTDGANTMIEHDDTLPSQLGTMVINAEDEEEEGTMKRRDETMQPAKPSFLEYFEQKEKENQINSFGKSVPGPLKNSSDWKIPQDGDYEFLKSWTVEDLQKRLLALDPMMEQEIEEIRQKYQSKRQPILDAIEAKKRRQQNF
Briefly: Kinome profiling MST1. In kind it is biochemical. As to conditions: read-out: Inhibitory activity MST1; for inhibition at 0.1 µM: 100 nM. On the procedure: as §1

Series [6] concerns the target MAPK1 (Homo sapiens, UniProt P28482). As to the kind of experiment: Kinome profiling MAPK1. In kind it is biochemical. The note with it: read-out: Inhibitory activity MAPK1; for inhibition at 0.1 µM: 100 nM. As for the experimental part:
as §1

Series [7] has as its target PKA (Homo sapiens, UniProt P17612). Briefly: Kinome profiling PKA. The note with it: read-out: Inhibitory activity PKA; for inhibition at 0.1 µM: 100 nM. In kind it is biochemical. On the procedure:
as §1

Series [8] has as its target MRCK-β (Homo sapiens, UniProt Q9Y5S2). As to the kind of experiment: Kinome profiling MRCK-β. As to conditions: read-out: Inhibitory activity MRCK-β; for inhibition at 0.1 µM: 100 nM. In kind it is biochemical. As for the experimental part: as §1
The subject of series [9] is HePG2 hepatocarcinoma cells. In kind it is cell-based. The note with it: human.
In series [10] the target is PTK5 (Homo sapiens, UniProt P42685). Briefly: Kinome profiling PTK5. In kind it is biochemical. As to conditions: read-out: Inhibitory activity PTK5; for inhibition at 0.1 µM: 100 nM. As for the experimental part: as §1
Sequence of PTK5 (P42685 whole entry): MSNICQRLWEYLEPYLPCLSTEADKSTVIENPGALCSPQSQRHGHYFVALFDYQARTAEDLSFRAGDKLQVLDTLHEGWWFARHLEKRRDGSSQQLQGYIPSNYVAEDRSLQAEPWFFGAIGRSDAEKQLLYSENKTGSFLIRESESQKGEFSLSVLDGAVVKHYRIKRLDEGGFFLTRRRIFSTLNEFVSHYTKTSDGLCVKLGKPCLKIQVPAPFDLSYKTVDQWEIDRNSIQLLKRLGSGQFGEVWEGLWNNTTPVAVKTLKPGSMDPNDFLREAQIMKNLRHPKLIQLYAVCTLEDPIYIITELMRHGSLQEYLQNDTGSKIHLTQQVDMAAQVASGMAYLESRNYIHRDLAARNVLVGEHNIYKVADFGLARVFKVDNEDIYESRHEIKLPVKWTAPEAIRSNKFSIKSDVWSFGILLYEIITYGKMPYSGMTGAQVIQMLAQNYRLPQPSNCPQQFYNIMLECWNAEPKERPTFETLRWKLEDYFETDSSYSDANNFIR

Sequence of LTK (P29376 17-864): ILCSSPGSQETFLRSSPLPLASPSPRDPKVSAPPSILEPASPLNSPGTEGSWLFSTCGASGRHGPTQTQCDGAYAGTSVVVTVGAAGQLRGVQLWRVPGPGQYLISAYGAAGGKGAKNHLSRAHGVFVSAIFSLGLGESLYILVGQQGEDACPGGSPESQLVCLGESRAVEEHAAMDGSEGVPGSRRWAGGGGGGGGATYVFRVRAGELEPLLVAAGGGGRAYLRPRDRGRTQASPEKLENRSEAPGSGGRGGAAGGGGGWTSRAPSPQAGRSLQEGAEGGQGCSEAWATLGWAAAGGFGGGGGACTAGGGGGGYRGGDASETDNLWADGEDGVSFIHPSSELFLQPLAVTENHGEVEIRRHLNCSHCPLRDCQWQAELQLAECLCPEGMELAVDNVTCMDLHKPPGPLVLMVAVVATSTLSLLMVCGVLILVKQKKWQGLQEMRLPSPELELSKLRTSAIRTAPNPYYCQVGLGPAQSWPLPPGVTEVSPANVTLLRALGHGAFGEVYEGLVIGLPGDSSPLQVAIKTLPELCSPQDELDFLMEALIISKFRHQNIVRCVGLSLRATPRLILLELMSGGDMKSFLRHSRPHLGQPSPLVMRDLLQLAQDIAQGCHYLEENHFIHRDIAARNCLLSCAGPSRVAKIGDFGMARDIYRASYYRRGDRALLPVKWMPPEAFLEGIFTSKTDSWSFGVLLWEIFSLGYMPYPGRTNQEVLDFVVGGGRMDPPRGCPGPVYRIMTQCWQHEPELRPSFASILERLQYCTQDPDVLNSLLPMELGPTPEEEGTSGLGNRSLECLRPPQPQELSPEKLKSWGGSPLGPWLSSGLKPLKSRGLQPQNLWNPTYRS
Sequence of MRCK-β (Q9Y5S2 whole entry): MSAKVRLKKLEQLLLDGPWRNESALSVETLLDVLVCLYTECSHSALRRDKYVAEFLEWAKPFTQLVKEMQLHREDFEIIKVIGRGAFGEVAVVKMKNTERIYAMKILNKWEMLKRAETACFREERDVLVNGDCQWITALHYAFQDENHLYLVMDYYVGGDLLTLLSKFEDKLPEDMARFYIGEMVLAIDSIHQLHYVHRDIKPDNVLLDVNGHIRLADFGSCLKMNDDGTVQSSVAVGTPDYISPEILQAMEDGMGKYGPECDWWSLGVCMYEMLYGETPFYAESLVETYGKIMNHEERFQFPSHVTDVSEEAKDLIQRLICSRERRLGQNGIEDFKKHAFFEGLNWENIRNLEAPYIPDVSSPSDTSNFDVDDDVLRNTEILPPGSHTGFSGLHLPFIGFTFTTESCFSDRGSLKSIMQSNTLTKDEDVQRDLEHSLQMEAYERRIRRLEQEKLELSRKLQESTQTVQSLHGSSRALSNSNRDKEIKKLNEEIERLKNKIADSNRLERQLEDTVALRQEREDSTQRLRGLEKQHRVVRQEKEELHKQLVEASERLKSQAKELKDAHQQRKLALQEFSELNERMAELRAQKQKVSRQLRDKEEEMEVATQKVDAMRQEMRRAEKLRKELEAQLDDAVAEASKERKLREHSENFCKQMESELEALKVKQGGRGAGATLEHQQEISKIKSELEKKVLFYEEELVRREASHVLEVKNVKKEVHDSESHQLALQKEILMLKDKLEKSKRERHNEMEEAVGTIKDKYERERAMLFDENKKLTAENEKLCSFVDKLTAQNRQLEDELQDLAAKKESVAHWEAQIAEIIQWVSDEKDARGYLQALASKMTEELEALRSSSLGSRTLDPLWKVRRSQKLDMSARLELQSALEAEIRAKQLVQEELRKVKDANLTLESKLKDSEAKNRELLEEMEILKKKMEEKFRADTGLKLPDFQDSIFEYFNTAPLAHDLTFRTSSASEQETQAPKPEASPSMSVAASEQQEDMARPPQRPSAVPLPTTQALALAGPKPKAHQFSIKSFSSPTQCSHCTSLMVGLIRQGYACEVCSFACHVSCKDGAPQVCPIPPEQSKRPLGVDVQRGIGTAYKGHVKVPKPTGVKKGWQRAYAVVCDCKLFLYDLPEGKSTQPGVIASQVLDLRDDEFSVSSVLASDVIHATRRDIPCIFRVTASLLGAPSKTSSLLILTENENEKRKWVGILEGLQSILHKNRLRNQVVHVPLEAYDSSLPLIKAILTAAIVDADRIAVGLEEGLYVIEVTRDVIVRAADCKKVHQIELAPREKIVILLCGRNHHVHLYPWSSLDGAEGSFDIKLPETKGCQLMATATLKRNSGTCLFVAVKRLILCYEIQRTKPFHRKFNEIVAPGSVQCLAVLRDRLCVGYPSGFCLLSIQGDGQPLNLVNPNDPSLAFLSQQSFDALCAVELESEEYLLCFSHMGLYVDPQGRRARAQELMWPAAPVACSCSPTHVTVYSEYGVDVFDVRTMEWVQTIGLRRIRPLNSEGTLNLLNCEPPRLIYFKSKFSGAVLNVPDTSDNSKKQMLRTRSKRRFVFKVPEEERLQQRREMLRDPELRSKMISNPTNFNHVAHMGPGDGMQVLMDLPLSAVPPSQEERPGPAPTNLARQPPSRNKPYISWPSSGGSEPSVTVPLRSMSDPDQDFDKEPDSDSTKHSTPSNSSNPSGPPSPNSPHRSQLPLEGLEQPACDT
Sequence of MAPK1 (P28482 whole entry): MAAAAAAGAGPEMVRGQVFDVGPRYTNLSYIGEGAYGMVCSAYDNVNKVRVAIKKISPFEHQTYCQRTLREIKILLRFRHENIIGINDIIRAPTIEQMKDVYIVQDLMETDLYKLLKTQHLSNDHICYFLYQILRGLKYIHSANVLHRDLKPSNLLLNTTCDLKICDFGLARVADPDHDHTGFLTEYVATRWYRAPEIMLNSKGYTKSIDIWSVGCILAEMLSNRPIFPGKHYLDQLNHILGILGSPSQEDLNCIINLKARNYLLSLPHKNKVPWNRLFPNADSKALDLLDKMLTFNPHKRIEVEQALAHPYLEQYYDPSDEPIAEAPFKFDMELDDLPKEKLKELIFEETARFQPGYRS
Sequence of RSK4 (Q9UK32 whole entry): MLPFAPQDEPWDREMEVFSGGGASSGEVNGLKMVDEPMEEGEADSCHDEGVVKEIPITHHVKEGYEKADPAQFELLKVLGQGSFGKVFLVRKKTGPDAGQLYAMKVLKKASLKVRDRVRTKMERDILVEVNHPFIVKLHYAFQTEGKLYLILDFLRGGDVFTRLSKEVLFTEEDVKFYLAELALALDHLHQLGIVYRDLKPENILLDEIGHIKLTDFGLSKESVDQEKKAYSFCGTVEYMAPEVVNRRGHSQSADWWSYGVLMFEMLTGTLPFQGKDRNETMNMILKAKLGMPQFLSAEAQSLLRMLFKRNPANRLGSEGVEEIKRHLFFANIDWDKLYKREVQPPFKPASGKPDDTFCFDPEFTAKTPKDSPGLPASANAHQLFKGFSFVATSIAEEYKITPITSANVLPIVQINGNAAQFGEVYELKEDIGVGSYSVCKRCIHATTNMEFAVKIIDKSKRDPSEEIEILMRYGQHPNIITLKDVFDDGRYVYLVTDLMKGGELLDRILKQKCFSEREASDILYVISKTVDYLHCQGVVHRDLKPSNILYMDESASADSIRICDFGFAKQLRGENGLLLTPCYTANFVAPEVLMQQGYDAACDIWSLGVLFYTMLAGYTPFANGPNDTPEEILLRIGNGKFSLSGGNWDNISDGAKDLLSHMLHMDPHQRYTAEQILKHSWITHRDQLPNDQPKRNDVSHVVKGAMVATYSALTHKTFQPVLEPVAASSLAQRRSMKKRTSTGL
Sequence of MEK1 (Q02750 whole entry): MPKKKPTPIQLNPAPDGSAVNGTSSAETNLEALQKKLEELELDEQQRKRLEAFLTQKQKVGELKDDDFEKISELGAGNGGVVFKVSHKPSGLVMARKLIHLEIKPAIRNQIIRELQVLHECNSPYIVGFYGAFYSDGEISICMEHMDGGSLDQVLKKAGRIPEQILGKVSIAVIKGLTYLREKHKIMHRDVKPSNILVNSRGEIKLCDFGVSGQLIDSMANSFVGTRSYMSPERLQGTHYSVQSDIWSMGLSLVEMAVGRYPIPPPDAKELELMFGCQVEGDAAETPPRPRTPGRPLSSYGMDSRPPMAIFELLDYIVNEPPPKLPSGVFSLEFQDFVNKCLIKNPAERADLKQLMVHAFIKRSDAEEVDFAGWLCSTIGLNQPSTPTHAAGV

For `COc1cc(-c2cc(-c3ccc(N4CCNCC4)cc3)cnc2N)cc(OC)c1OC` [Compound 15, 5-(4-(piperazin-1-yl)phenyl)-3-(3,4,5-trimethoxyphenyl)pyridin-2-amine], the inhibition at 0.1 µM in series [1] was 1%; in series [2], 13%; in series [3] it was 3%; in [5], 3%; in [6], 3%; in series [7] it was 1%. Moreover, the results for the inhibition at 0.1 µM in [8] and in [10] were 3% and 17%, respectively. The inhibition at 1 µM in [1] stood at 2%; in series [2], 60%; in series [3], 6%; in series [5] it was 10%; in series [6], 6%; in series [7], 2%. Further, the inhibition at 1 µM was found to be 22% in [8] and 66% in [10]. Moreover, the negative logarithm of the IC50 (pIC50) in series [4] is 8.10. Further, the Cell viability turned out to be 95% in series [9] (4 h, 1 μM); 103% in series [9] (4 h, 10 μM); 103% in [9] (4 h, 100 μM); 96% in series [9] (24 h, 1 μM); 96% in series [9] (24 h, 10 μM); 23% in series [9] (24 h, 100 μM).

On to `COc1cc(-c2cc(-c3ccc(N4CCNCC4)cc3)cnc2C)cc(OC)c1OC` [Compound 10, 1-(4-(6-methyl-5-(3,4,5-trimethoxyphenyl)pyridin-3-yl)phenyl)piperazine], for which the inhibition at 0.1 µM in [1] is 1%; in series [2], 4%; in series [3], 0%; in series [5], 3%; in series [6] it was 1%; in series [7], 1%. In addition, the figures for the inhibition at 0.1 µM in [8] and in [10] were 0% and 1%, respectively. In addition, the inhibition at 1 µM in [1] came to 1%; in series [2] it was 10%; in series [3] it was 2%; in series [5] it was 3%; in series [6], 1%; in series [7] it was 3%. Besides, the inhibition at 1 µM in [8] amounted to 0%; in [10] it was 11%. Besides, the pIC50 in series [4] is 6.42. The Cell viability in series [9] (4 h, 1 μM) is given as 91%; in series [9] (4 h, 10 μM), 100%; in [9] (4 h, 100 μM) it was 88%; in [9] (24 h, 1 μM), 92%; in series [9] (24 h, 10 μM), 78%; in series [9] (24 h, 100 μM), 77%.

By pIC50 is commonly meant −log10 of the IC50, conventionally taken in molar units.
